Measured values published in ChEMBL document CHEMBL4765419, “Design, synthesis and bioactivity evaluation of novel arylalkene-amide derivatives as dual-target antifungal inhibitors” (Eur J Med Chem, 2020).
Active and inactive are the calls of the source. No cut-off for these calls is given here.

What was measured:
Candida albicans [1] = experiment: Antifungal activity against Candida albicans assessed as inhibition of microbial growth by two fold broth microdilution method; format: functional
Pichia kudriavzevii = experiment: Antifungal activity against Candida krusei assessed as inhibition of microbial growth by two fold broth microdilution method; format: functional
Nakaseomyces glabratus = experiment: Antifungal activity against Candida glabrata assessed as inhibition of microbial growth by two fold broth microdilution method; format: functional
Aspergillus fumigatus = experiment: Antifungal activity against Aspergillus fumigatus assessed as inhibition of microbial growth by two fold broth microdilution method; format: functional
Candida tropicalis = experiment: Antifungal activity against Candida tropicalis assessed as inhibition of microbial growth by two fold broth microdilution method; format: functional
Candida albicans [2] = experiment: Antifungal activity against fluconazole-resistant Candida albicans 17# assessed as inhibition of microbial growth by two fold broth microdilution method; format: functional
Candida albicans [3] = experiment: Antifungal activity against fluconazole-resistant Candida albicans CaR assessed as inhibition of microbial growth by two fold broth microdilution method; format: functional
Candida albicans [4] = experiment: Antifungal activity against fluconazole-resistant Candida albicans 632 assessed as inhibition of microbial growth by two fold broth microdilution method; format: functional
Candida albicans [5] = experiment: Antifungal activity against fluconazole-resistant Candida albicans 901 assessed as inhibition of microbial growth by two fold broth microdilution method; format: functional
Candida albicans [6] = experiment: Antifungal activity against fluconazole-resistant Candida albicans 904 assessed as inhibition of microbial growth by two fold broth microdilution method; format: functional
Candida albicans [7] = experiment: Antifungal activity against Candida albicans ATCC SC5314 assessed as decrease in fungal cell density by polarizing microscopy; format: functional, organism-based
Candida albicans SC5314 [8] = experiment: Inhibition of SE/CYP51 in Candida albicans ATCC SC5314 assessed as ergosterol level at 4 ug/ml incubated for 16 hrs by LC/MS analysis (reference value: 79.43 %); parameters: scale not given: the % may be the effect or the level left; conditions: dose 4.0 µg/ml
Candida albicans SC5314 [9] = experiment: Inhibition of SE/CYP51 in Candida albicans ATCC SC5314 assessed as lanosterol level at 4 ug/ml incubated for 16 hrs by LC/MS analysis (reference value: 6.62 %); parameters: scale not given: the % may be the effect or the level left; conditions: dose 4.0 µg/ml
Candida albicans SC5314 [10] = experiment: Inhibition of SE/CYP51 in Candida albicans ATCC SC5314 assessed as eburicol level at 4 ug/ml incubated for 16 hrs by LC/MS analysis (reference value: 4.67 %); parameters: scale not given: the % may be the effect or the level left; conditions: dose 4.0 µg/ml
Candida albicans SC5314 [11] = experiment: Inhibition of SE/CYP51 in Candida albicans ATCC SC5314 assessed as squalene level at 4 ug/ml incubated for 16 hrs by LC/MS analysis (reference value: 2.25 %); parameters: scale not given: the % may be the effect or the level left; conditions: dose 4.0 µg/ml
Candida albicans SC5314 [12] = experiment: Inhibition of SE/CYP51 in Candida albicans ATCC SC5314 assessed as unidentified sterol level at 4 ug/ml incubated for 16 hrs by LC/MS analysis (reference value: 7.03 %); parameters: scale not given: the % may be the effect or the level left; conditions: dose 4.0 µg/ml
[13] = Stability in human plasma incubated for 60 mins; format: ADME, cell-free; conditions: read-out: Stabilty
[14] = Stability in human plasma incubated for 120 mins; format: ADME, cell-free; conditions: read-out: Stabilty
Candida albicans [15] = experiment: In vivo antifungal activity against Candida albicans infected in mouse assessed as reduction in tissue infection injected via abdomen for 7 days by H and E staining based histological analysis; format: functional, organism-based; conditions: time 7.0 day
Candida albicans [16] = experiment: In vivo antifungal activity against Candida albicans infected in mouse assessed as uniform cell distribution injected via abdomen for 7 days by H and E staining based histological analysis; format: functional, organism-based; conditions: time 7.0 day
Candida albicans [17] = experiment: In vivo antifungal activity against Candida albicans infected in mouse assessed as disappearance of infected positions injected via abdomen for 7 days by H and E staining based histological analysis; format: functional, organism-based; conditions: time 7.0 day
Candida albicans [18] = experiment: In vivo antifungal activity against Candida albicans infected in mouse assessed as disappearance of cell nuclear aggregation injected via abdomen for 7 days by H and E staining based histological analysis; format: functional, organism-based; conditions: time 7.0 day
[19] = Toxicity in mouse infected with Candida albicans assessed as change in body weight administered via abdomen for 7 days; conditions: in vivo, ip, 168 h, time 7 day
[20] = Toxicity in mouse infected with Candida albicans assessed as change in heart morphology administered via abdomen for 7 days by H and E staining based histological analysis; conditions: in vivo, ip, 168 h, time 7 day
[21] = Toxicity in mouse infected with Candida albicans assessed as change in liver morphology administered via abdomen for 7 days by H and E staining based histological analysis; conditions: in vivo, ip, 168 h, time 7 day
[22] = Toxicity in mouse infected with Candida albicans assessed as change in spleen morphology administered via abdomen for 7 days by H and E staining based histological analysis; conditions: in vivo, ip, 168 h, time 7 day
[23] = Toxicity in mouse infected with Candida albicans assessed as change in kidney morphology administered via abdomen for 7 days by H and E staining based histological analysis; conditions: in vivo, ip, 168 h, time 7 day
[24] = Toxicity in mouse infected with Candida albicans assessed as change in lung morphology administered via abdomen for 7 days by H and E staining based histological analysis; conditions: in vivo, ip, 168 h, time 7 day
[25] = Hepatotoxicity in mouse infected with Candida albicans assessed as aspartate aminotransferase level in plasma administered via abdomen for 7 days (reference value: 109.4 +/-4.8 IU/L); format: toxicity; conditions: ip, 168 h, time 7 day
[26] = Hepatotoxicity in mouse infected with Candida albicans assessed as effect on alanine aminotransferase level in plasma administered via abdomen for 7 days (reference value: 102 +/-9.2 IU/L); format: toxicity; conditions: ip, 168 h, time 7 day
[27] = Renal toxicity in mouse infected with Candida albicans assessed as effect on blood urea nitrogen level administered via abdomen for 7 days (reference value: 6.7 +/-0.3 mmol/L); conditions: in vivo, ip, 168 h, time 7 day

What does the source list for `O=C(/C=C/c1ccc2c(c1)OCCO2)NCC(=O)NCc1ccncc1`?
MIC (Candida albicans [1]): 0.5 mg/L; MIC (Pichia kudriavzevii): 0.5 mg/L; MIC (Nakaseomyces glabratus): 0.5 mg/L; MIC (Aspergillus fumigatus): > 16 mg/L; MIC (Candida tropicalis): 1 mg/L

Which MIC (Candida albicans [1]) does the source give for `O=C(NCc1ccncc1)C(=O)N/N=C/c1ccc2c(c1)OCCO2` here?
The MIC was 0.5 mg/L.

And the MIC (Pichia kudriavzevii)?
The MIC was 0.5 mg/L.

And the MIC (Nakaseomyces glabratus)?
Its MIC is 1 mg/L.

And the MIC (Aspergillus fumigatus)?
Its MIC is 8 mg/L.

And the MIC (Candida tropicalis)?
Its MIC is 1 mg/L.

Which MIC (Candida albicans [1]) does the source give for `O=C(/C=C/c1cccc2ccccc12)NC(Cn1ccnc1)C(=O)Nc1ccccc1` (stereo unspecified) here?
Its MIC is 0.125 mg/L.

What about the MIC (Pichia kudriavzevii) of the same compound?
The MIC was 0.25 mg/L.

What about the MIC (Nakaseomyces glabratus) of the same compound?
The MIC was 0.125 mg/L.

And the MIC (Aspergillus fumigatus)?
Its MIC is 4 mg/L.

And the MIC (Candida tropicalis)?
Its MIC is 0.25 mg/L.

And the MIC (Candida albicans [2])?
The MIC was 4 mg/L.

What about the MIC (Candida albicans [3]) of the same compound?
Its MIC is 8 mg/L.

What about the MIC (Candida albicans [4]) of the same compound?
The MIC was 8 mg/L.

What about the MIC (Candida albicans [5]) of the same compound?
Its MIC is 8 mg/L.

What about the MIC (Candida albicans [6]) of the same compound?
Its MIC is greater than 16 mg/L.

And the Activity (Candida albicans [7])?
Its Activity is “Active”.

And the Activity (Candida albicans SC5314 [8])?
The Activity was 10.7%.

And the Activity (Candida albicans SC5314 [9])?
The Activity was 14.5%.

What about the Activity (Candida albicans SC5314 [10]) of the same compound?
Its Activity is 40.1%.

And the Activity (Candida albicans SC5314 [11])?
The Activity was 29.1%.

And the Activity (Candida albicans SC5314 [12])?
The Activity was 5.46%.

What about the remaining at 1 h [13] of the same compound?
Its remaining at 1 h is 89.7%.

What about the remaining at 2 h [14] of the same compound?
The remaining at 2 h was 84.1%.

And the Activity (Candida albicans [15])?
The Activity was “Active”.

And the Activity (Candida albicans [16])?
The Activity was “Active”.

What about the Activity (Candida albicans [17]) of the same compound?
Its Activity is “Active”.

What about the Activity (Candida albicans [18]) of the same compound?
Its Activity is “Active”.

What about the Activity [19] of the same compound?
Its Activity is “Non-Toxic”.

And the Activity [20]?
The Activity was “Non-Toxic”.

And the Activity [21]?
Its Activity is “Non-Toxic”.

And the Activity [22]?
Its Activity is “Non-Toxic”.

And the Activity [23]?
The Activity was “Non-Toxic”.

What about the Activity [24] of the same compound?
The Activity was “Non-Toxic”.

What about the Activity [25] of the same compound?
Its Activity is 101.5 IU/L.

And the Activity [26]?
The Activity was 105 IU/L.

And the Activity [27]?
Its Activity is 6.9 mmol/L.

For `O=C(/C=C/c1ccc2ccccc2c1)NCC(=O)NCc1ccncc1`, which MIC (Candida albicans [1]) is on record?
The MIC was 0.25 mg/L.

What about the MIC (Pichia kudriavzevii) of the same compound?
Its MIC is 1 mg/L.

What about the MIC (Nakaseomyces glabratus) of the same compound?
Its MIC is 0.5 mg/L.

And the MIC (Aspergillus fumigatus)?
Its MIC is greater than 16 mg/L.

What about the MIC (Candida tropicalis) of the same compound?
Its MIC is 0.25 mg/L.

With `CN(CC(=O)NCc1ccncc1)C(=O)/C=C/c1cccc2ccccc12` as the compound, how does the MIC (Candida albicans [1]) read?
Its MIC is 0.125 mg/L.

What about the MIC (Pichia kudriavzevii) of the same compound?
The MIC was 0.5 mg/L.

And the MIC (Nakaseomyces glabratus)?
Its MIC is 0.25 mg/L.

And the MIC (Aspergillus fumigatus)?
The MIC was 4 mg/L.

What about the MIC (Candida tropicalis) of the same compound?
Its MIC is 0.25 mg/L.

With `O=C(NCc1cccnc1)C(=O)N/N=C/c1ccc2ccccc2c1` as the compound, how does the MIC (Candida albicans [1]) read?
The MIC was 1 mg/L.

And the MIC (Pichia kudriavzevii)?
Its MIC is 0.5 mg/L.

And the MIC (Nakaseomyces glabratus)?
The MIC was 0.25 mg/L.

And the MIC (Aspergillus fumigatus)?
The MIC was 8 mg/L.

What about the MIC (Candida tropicalis) of the same compound?
Its MIC is 0.25 mg/L.

Which results are given for `CN(CC(=O)NCc1cccnc1)C(=O)/C=C/c1cccc2ccccc12`?
MIC (Candida albicans [1]): 0.5 mg/L; MIC (Pichia kudriavzevii): 0.25 mg/L; MIC (Nakaseomyces glabratus): 0.5 mg/L; MIC (Aspergillus fumigatus): > 16 mg/L; MIC (Candida tropicalis): 0.5 mg/L

Which results are given for `O=C(/C=C/c1ccc2ccccc2c1)NCC(=O)NCc1cccnc1`?
MIC (Candida albicans [1]): 0.5 mg/L; MIC (Pichia kudriavzevii): 2 mg/L; MIC (Nakaseomyces glabratus): 0.5 mg/L; MIC (Aspergillus fumigatus): > 16 mg/L; MIC (Candida tropicalis): 2 mg/L

What does the source list for `O=C(/C=C/c1ccc2c(c1)OCCO2)NC(Cn1ccnc1)C(=O)Nc1ccccc1` (stereo unspecified)?
MIC (Candida albicans [1]): 0.25 mg/L; MIC (Pichia kudriavzevii): 1 mg/L; MIC (Nakaseomyces glabratus): 0.5 mg/L; MIC (Aspergillus fumigatus): > 16 mg/L; MIC (Candida tropicalis): 0.25 mg/L

What does the source list for `O=C(/C=C/c1ccc2ccccc2c1)NC(Cn1ccnc1)C(=O)Nc1ccccc1` (stereo unspecified)?
MIC (Candida albicans [1]): 0.5 mg/L; MIC (Pichia kudriavzevii): 0.5 mg/L; MIC (Nakaseomyces glabratus): 0.25 mg/L; MIC (Aspergillus fumigatus): 8 mg/L; MIC (Candida tropicalis): 0.5 mg/L

What does the source list for `O=C(NCc1ccncc1)C(=O)N/N=C/c1ccc2ccccc2c1`?
MIC (Candida albicans [1]): 0.25 mg/L; MIC (Pichia kudriavzevii): 0.25 mg/L; MIC (Nakaseomyces glabratus): 0.5 mg/L; MIC (Aspergillus fumigatus): > 16 mg/L; MIC (Candida tropicalis): 0.5 mg/L

With `CN(CC(=O)NCc1ccncc1)C(=O)/C=C/c1ccc2ccccc2c1` as the compound, how does the MIC (Candida albicans [1]) read?
The MIC was 0.25 mg/L.

What about the MIC (Pichia kudriavzevii) of the same compound?
The MIC was 0.25 mg/L.

What about the MIC (Nakaseomyces glabratus) of the same compound?
The MIC was 0.125 mg/L.

What about the MIC (Aspergillus fumigatus) of the same compound?
Its MIC is 8 mg/L.

And the MIC (Candida tropicalis)?
Its MIC is 0.25 mg/L.

What about the MIC (Candida albicans [2]) of the same compound?
The MIC was greater than 16 mg/L.

What about the MIC (Candida albicans [3]) of the same compound?
Its MIC is 8 mg/L.

What about the MIC (Candida albicans [4]) of the same compound?
The MIC was 8 mg/L.

What about the MIC (Candida albicans [5]) of the same compound?
The MIC was greater than 16 mg/L.

And the MIC (Candida albicans [6])?
Its MIC is greater than 16 mg/L.

What does the source list for `CN(CC(=O)NCc1ccncc1)C(=O)/C=C/c1ccc2c(c1)OCCO2`?
MIC (Candida albicans [1]): 0.5 mg/L; MIC (Pichia kudriavzevii): 1 mg/L; MIC (Nakaseomyces glabratus): 1 mg/L; MIC (Aspergillus fumigatus): > 16 mg/L; MIC (Candida tropicalis): 0.5 mg/L
